Results as given in US20120070411A1, “SUBSTITUTED NUCLEOTIDE ANALOGS” (Alios BioPharma, Inc., priority 2010, published 2012).

The molecules below were run on Huh-7 cells containing the self-replicating, subgenomic HCV replicon (assay: HCV replicon assay (luciferase reporter, 72 h)). Conditions: Hepatitis C virus, Huh-7, 72 h, read-out: HCV Replicon Activity (EC50).
Format: cell-based
Description: Huh-7 cells containing the self-replicating, subgenomic HCV replicon with a stable luciferase (LUC) reporter were cultured in Dulbecco's modified Eagle's medium (DMEM) containing 2 mM L-glutamine and supplemented with 10% heat-inactivated fetal bovine serum (FBS), 1% penicillin-streptomyocin, 1% nonessential amino acids, and 0.5 mg/ml G418.
On the first day, 5,000 HCV replicon cells were plated per well in a 96-well plate. On the following day, test compounds were solubilized in 100% DMSO to 100× the desired final testing concentration. Each compound was then serially diluted (1:3) up to 9 different concentrations. Compounds in 100% DMSO are reduced to 10% DMSO by diluting 1:10 in cell culture media. The compounds were diluted to 10% DMSO with cell culture media, which were used to dose the HCV replicon cells in 96-well format. The final DMSO concentration was 1%. The HCV replicon cells were incubated at 37° C. for 72 hours. At 72 hours, cells were processed when the cells are still subconfluent. Compounds that reduce the LUC signal are determined by Bright-Glo Luciferase Assay (Promega, Madison, Wis.). % Inhibition was determined for each compound concentration in relation to the control cells (untreated HCV replicon) to calculate the EC50.

SMILES	EC50
COC(=O)[C@H](C)NP(=O)(Oc1ccccc1)O[C@H](C)[C@H]1O[C@@H](n2cnc3c(N)ncnc32)[C@H](O)[C@@H]1O (stereo partly drawn)	< 30 µM
COC(=O)[C@H](C)NP(=O)(Oc1ccccc1)O[C@@H](C)[C@H]1O[C@@H](n2cnc3c(N)ncnc32)[C@](C)(O)[C@@H]1O (stereo partly drawn)	< 1000 µM
CCOC(=O)[C@H](C)NP(=O)(Oc1ccccc1)O[C@@H](C)[C@H]1O[C@@H](n2cnc3c(N)ncnc32)[C@H](O)[C@@H]1O (stereo partly drawn)	< 30 µM
COC(=O)[C@H](C)N[P@@](=O)(Oc1ccccc1)O[C@@H](C)[C@H]1O[C@@H](n2cnc3c(N)ncnc32)[C@H](O)[C@@H]1O	< 5 µM
COC(=O)[C@H](C)N[P@](=O)(Oc1ccccc1)O[C@@H](C)[C@H]1O[C@@H](n2cnc3c(N)ncnc32)[C@H](O)[C@@H]1O	< 5 µM
COC(=O)[C@H](C)NP(=O)(Oc1ccccc1)O[C@@H](C)[C@H]1O[C@@H](n2ccc(N)nc2=O)C(F)(F)[C@@H]1O (mixture of isomers) [C5, 2′-Deoxy-2′,2′-difluoro-5′(S)—C-methylcytidine 5′-[phenyl(methoxy-L-alaninyl)]phosphate]	< 1 µM
COC(=O)[C@H](C)NP(=O)(Oc1ccccc1)OC(C)[C@H]1O[C@@H](n2ccc(N)nc2=O)[C@@H](F)[C@@H]1O (mixture of isomers) [C9, 2′-deoxy-2′-C-β-fluoro-5′(R/S)—C-methylcytidine-5′-[phenyl-(methoxy-L-alaninyl)]phosphate]	< 100 µM
CC(C)OC(=O)[C@H](C)NP(=O)(Oc1cccc2ccccc12)OC(C)[C@H]1O[C@@H](n2ccc(N)nc2=O)[C@@H](C)[C@@H]1O (mixture of isomers) [C10, 2′-deoxy-2′-C-β-methyl-5′(R/S)—C-methylcytidine 5′-[1-naphthyl (isopropoxy-L-alaninyl)]phosphate]	< 30 µM
COC(=O)C(C)NP(=O)(Oc1ccccc1)OC(C)[C@H]1O[C@@H](n2ccc(=O)[nH]c2=O)C(C)C1O (mixture of isomers) [D7]	< 30 µM
C[C@H](NP(=O)(Oc1ccc(F)cc1)O[C@@H](C)[C@H]1O[C@@H](n2cnc3c(N)ncnc32)[C@H](O)[C@@H]1O)C(=O)OC1CCCCC1 (stereo in doubt) [A31]	< 1 µM
C[C@H](NP(=O)(Oc1cccc2ncccc12)O[C@@H](C)[C@H]1O[C@@H](n2cnc3c(N)ncnc32)[C@H](O)[C@@H]1O)C(=O)OC1CCCCC1 (stereo in doubt) [A35]	< 30 µM
CC(C)OC(=O)[C@H](C)N[P@](=O)(Oc1cccc2ccccc12)O[C@@H](C)[C@H]1O[C@@H](n2cnc3c(=O)[nH]cnc32)[C@H](O)[C@@H]1O (stereo in doubt) [B5, 5′(S)—C-methylinosine 5′-[1-naphthyl(isopropoxy-L-alaninyl)]phosphate]	< 100 µM
COC(=O)C(C)NP(=O)(Oc1ccccc1)OC(C)[C@H]1O[C@@H](n2ccc(=O)[nH]c2=O)C(F)(F)C1O (stereo in doubt) [D4, 2′-Deoxy-2′,2′-difluoro-5′(S)—C-methyluridine 5′-[phenyl(methoxy-L-alaninyl)]phosphate]	< 30 µM
C[C@H](NP(=O)(Oc1cccc2ccccc12)O[C@@H](C)[C@H]1O[C@@H](n2cnc3c(N)ncnc32)[C@H](O)[C@@H]1O)C(=O)OC1CCCCC1 (stereo partly drawn) [A1, 5′(S)—C-methyladenosine 5′-[1-naphthyl(cyclohexoxy-L-alaninyl)]phosphate]	< 1 µM
C[C@H](NP(=O)(Oc1cccc2ccccc12)O[C@@H](C)[C@H]1O[C@@H](n2cnc3c(N)ncnc32)[C@H](O)[C@@H]1O)C(=O)OCC(C)(C)C (stereo partly drawn) [A2, 5′(S)—C-methyladenosine 5′-[1-naphthyl(neopentoxy-L-alaninyl)]phosphate]	< 1 µM
C[C@H](NP(=O)(Oc1cccc2ccccc12)O[C@@H](C)[C@H]1O[C@@H](n2cnc3c(N)ncnc32)[C@@H]2OC(=O)O[C@@H]21)C(=O)OC1CCCCC1 (stereo partly drawn) [A3, 2′,3′-O-carbonyl-5′(S)—C-methyladenosine 5′-[1-naphthyl(cyclohexoxy-L-alaninyl)]phosphate]	< 1 µM
C[C@H](NP(=O)(Oc1cccc2ccccc12)O[C@@H](C)[C@H]1O[C@@H](n2cnc3c(N)ncnc32)[C@@H]2OC(=O)O[C@@H]21)C(=O)OCC(C)(C)C (stereo partly drawn) [A4, 2′,3′-O-carbonyl-5′(S)—C-methyladenosine 5′-[1-naphthyl(neopentoxy-L-alaninyl)]phosphate]	< 1 µM
COC(=O)Nc1ncnc2c1ncn2[C@@H]1O[C@H]([C@H](C)OP(=O)(N[C@@H](C)C(=O)OC2CCCCC2)Oc2cccc3ccccc23)[C@H]2OC(=O)O[C@H]21 (stereo partly drawn) [A5, 2′,3′-O-carbonyl-N6-methoxycarbonyl-5′(S)—C-methyladenosine 5′-[1-naphthyl(cyclohexoxy-L-alaninyl)]phosphate]	< 30 µM
COC(=O)Nc1ncnc2c1ncn2[C@@H]1O[C@H]([C@H](C)OP(=O)(N[C@@H](C)C(=O)OC2CCCCC2)Oc2cccc3ccccc23)[C@@H](O)[C@H]1O (stereo partly drawn) [A6, N6-methoxycarbonyl-5′(S)—C-methyladenosine 5′-[1-naphthyl(cyclohexoxy-L-alaninyl)]phosphate]	< 30 µM
COC(=O)Nc1ncnc2c1ncn2[C@@H]1O[C@H]([C@H](C)OP(=O)(N[C@@H](C)C(=O)OCC(C)(C)C)Oc2cccc3ccccc23)[C@H]2OC(=O)O[C@H]21 (stereo partly drawn) [A7, 2′,3′-O-carbonyl-N6-methoxycarbonyl-5′(S)—C-methyladenosine 5′-[1-naphthyl(neopentoxy-L-alaninyl)]phosphate]	< 30 µM
CC(C)OC(=O)[C@H](C)NP(=O)(Oc1ccccc1)O[C@@H](C)[C@H]1O[C@@H](n2cnc3c(N)ncnc32)[C@H](O)[C@@H]1O (stereo partly drawn) [A8, 5′(S)—C-methyladenosine 5′-[phenyl(isopropoxy-L-alaninyl)]phosphate]	< 1 µM
CC(C)OC(=O)[C@H](C)NP(=O)(Oc1ccccc1)O[C@@H](C)[C@H]1O[C@@H](n2cnc3c(N)ncnc32)[C@@H]2OC(=O)O[C@@H]21 (stereo partly drawn) [A9, 2′,3′-carbonyl-5′(S)—C-methyladenosine 5′-[phenyl(isopropoxy-L-alaninyl)]phosphate]	< 1 µM
C[C@H](NP(=O)(Oc1ccccc1)O[C@@H](C)[C@H]1O[C@@H](n2cnc3c(N)ncnc32)[C@H](O)[C@@H]1O)C(=O)OC1CCCCC1 (stereo partly drawn) [A10, 5′(S)—C-methyladenosine 5′-[phenyl(cyclohexoxy-L-alaninyl)]phosphate]	< 1 µM
C[C@H](N[P@@](=O)(Oc1ccccc1)O[C@@H](C)[C@H]1O[C@@H](n2cnc3c(N)ncnc32)[C@H](O)[C@@H]1O)C(=O)OC1CCCCC1 [A10a, 5′(S)—C-methyladenosine 5′(S)-[phenyl(cyclohexoxy-L-alaninyl)]phosphate]	< 1 µM
C[C@H](N[P@](=O)(Oc1ccccc1)O[C@@H](C)[C@H]1O[C@@H](n2cnc3c(N)ncnc32)[C@H](O)[C@@H]1O)C(=O)OC1CCCCC1 [A10b, 5′(S)—C-methyladenosine 5′(R)-[phenyl(cyclohexoxy-L-alaninyl)]phosphate]	< 1 µM
C[C@H](NP(=O)(Oc1ccccc1)O[C@@H](C)[C@H]1O[C@@H](n2cnc3c(N)ncnc32)[C@H](O)[C@@H]1O)C(=O)OCC(C)(C)C (stereo partly drawn) [A11, 5′(S)—C-methyladenosine 5′-[phenyl(neopentoxy-L-alaninyl)]phosphate]	< 1 µM
C[C@H](NP(=O)(Oc1ccccc1)O[C@@H](C)[C@H]1O[C@@H](n2cnc3c(N)ncnc32)[C@@H]2OC(=O)O[C@@H]21)C(=O)OCC(C)(C)C (stereo partly drawn) [A12, 2′,3′-O-carbonyl-5′(S)—C-methyladenosine 5′-[phenyl(neopentoxy-L-alaninyl)]phosphate]	< 1 µM
C[C@H](NP(=O)(Oc1ccccc1)O[C@@H](C)[C@H]1O[C@@H](n2cnc3c(N)ncnc32)[C@@H]2OC(=O)O[C@@H]21)C(=O)OC1CCCCC1 (stereo partly drawn) [A13, 2′,3′-O-carbonyl-5′(S)—C-methyladenosine 5′-[phenyl(cyclohexoxy-L-alaninyl)]phosphate]	< 1 µM

Same assay, conditions: Hepatitis C virus; Table 9; Huh-7 HCV replicon cells, luciferase, 72 hours; read-out: HCV Replicon Activity (EC50)

SMILES	EC50
CC(O)[C@H]1O[C@@H](n2ccc(N)nc2=O)[C@@H](F)[C@@H]1O (stereo partly drawn)	5 to 30 µM
C[C@@H](O)[C@H]1O[C@@H](n2ccc(N)nc2=O)C(F)(F)[C@@H]1O	< 5 µM
C[C@@H](O)[C@H]1O[C@@H](n2cnc3c(N)ncnc32)[C@](C)(O)[C@@H]1O	5 to 30 µM
C[C@H](O)[C@H]1O[C@@H](n2ccc(N)nc2=O)[C@@H](O)[C@@H]1O	30 to 200 µM
CC(O)[C@H]1O[C@@H](n2cnc3c(=O)[nH]c(N)nc32)[C@H](O)[C@@H]1O (stereo partly drawn)	30 to 200 µM
CC(OC(=O)c1ccccc1)[C@H]1O[C@@H](n2ccc(=O)[nH]c2=O)[C@](C)(OC(=O)c2ccccc2)[C@@H]1OC(=O)c1ccccc1 (stereo partly drawn)	5 to 30 µM
C[C@H](O)[C@H]1O[C@@H](n2ccc(N)nc2=O)C(F)(F)[C@@H]1O	< 5 µM
C[C@H](O)[C@H]1O[C@@H](n2ccc(N)nc2=O)[C@H](F)[C@@H]1O	5 to 30 µM
CC(=O)Nc1ccn([C@@H]2O[C@H]([C@H](C)OC(C)=O)[C@@H](OC(C)=O)C2(F)F)c(=O)n1	< 5 µM
CCC(=O)O[C@@H](C)[C@H]1O[C@@H](n2ccc(N)nc2=O)C(F)(F)[C@@H]1O	< 5 µM
CCC(=O)O[C@@H](C)[C@H]1O[C@@H](n2ccc(N)nc2=O)C(F)(F)[C@@H]1OC(=O)CC	< 5 µM
CC(=O)O[C@@H](C)[C@H]1O[C@@H](n2ccc(N)nc2=O)C(F)(F)[C@@H]1O	< 5 µM
CC(=O)O[C@@H](C)[C@H]1O[C@@H](n2ccc(N)nc2=O)C(F)(F)[C@@H]1OC(C)=O	< 5 µM
C[C@@H](O)[C@H]1O[C@@H](n2ccc(N)nc2=O)[C@@H](O)[C@@H]1O	< 5 µM
